What was measured:
Assay type in all cases: cell-based
BT549 CSCs = test: Gene expression by qRT-PCR in cancer stem cells; conditions: 1 μM for 48 hours
Procedure: (§1) Cell culture and drug treatments. Cell lines were obtained from ATCC (American Type Culture Collection, Manassas, VA) and grown under standard conditions (5% CO2, 10% FBS (fetal bovine serum), with 5% antifungal/antibacterial). Cell lines were tested for Mycoplasma using the MycoAlert Mycoplasma Detection Kit (Lonza, Basel Switzerland, cat: LT07-218); all experiments were done with mycoplasma negative cells. U87MG cells were propagated in MEM (Minimal Essential Medium). BT549 and DBTRG cells were propagated in RPMI (Roswell Park Memorial Institute 1640 Medium). LN18, U118MG, A172 and LN229 cells were propagated in DMEM (Dulbecco's Modified Eagle Medium). Neurosphere/cancer stem cell cultures for U87MG and BT549 cell lines were plated with 40,000 cells per mL in 3D Tumorsphere Medium XF (Sigma cat: C-28070, Burlington, MA). BT549 cancer stem cell cultures were supplemented with 1XB27 XenoFree CTS (Gibco/Thermo Fisher Waltham, MA, USA). AS1842856 was purchased from Calbiochem (Danvers, MA) and utilized at 200 nM, 500 nM and 1 μM final concentrations as indicated. […] Samples (cDNAs) were analyzed using (Power SYBR Green Master Mix, Applied Biosystems, Foster City, CA) and the ABI Step-One Real-time system (Carlsbad, CA). Expression levels were normalized to Beta-Tubulin, TUBB in gene expression experiments and calculated using 2-4ACT method (Livak et al., 2001). […]

U87MG CSCs = test: Gene expression by qRT-PCR in cancer stem cells; conditions: 1 μM for 48 hours
Procedure: as §1

BT549 cells = test: Gene expression by qRT-PCR (TUBB reference)
Procedure: (§2) Cell culture and drug treatments. Cell lines were obtained from ATCC (American Type Culture Collection, Manassas, VA) and grown under standard conditions (5% CO2, 10% FBS (fetal bovine serum), with 5% antifungal/antibacterial). Cell lines were tested for Mycoplasma using the MycoAlert Mycoplasma Detection Kit (Lonza, Basel Switzerland, cat: LT07-218); all experiments were done with mycoplasma negative cells. U87MG cells were propagated in MEM (Minimal Essential Medium). BT549 and DBTRG cells were propagated in RPMI (Roswell Park Memorial Institute 1640 Medium). LN18, U118MG, A172 and LN229 cells were propagated in DMEM (Dulbecco's Modified Eagle Medium). Neurosphere/cancer stem cell cultures for U87MG and BT549 cell lines were plated with 40,000 cells per mL in 3D Tumorsphere Medium XF (Sigma cat: C-28070, Burlington, MA). BT549 cancer stem cell cultures were supplemented with 1XB27 XenoFree CTS (Gibco/Thermo Fisher Waltham, MA, USA). AS1842856 was purchased from Calbiochem (Danvers, MA) and utilized at 200 nM, 500 nM and 1 μM final concentrations as indicated. AS1708727 was purchased from MedChem Express (Monmouth Junction, NJ) and was used at 0.5 μM, 1.0 µM and 2.0 μM concentrations. 5-aza-2'-deoxycytidine (5-AZA) was purchased from Millipore/Sigma (Burlington, MA) and utilized at a final concentration of 3 μM. Total RNA was prepared using the Qiagen RNeasy kit (Hilden, Germany), which was then used to generate cDNA using Superscript Reverse Transcriptase II (Invitrogen, Carlsbad, CA). Samples (cDNAs) were analyzed using (Power SYBR Green Master Mix, Applied Biosystems, Foster City, CA) and the ABI Step-One Real-time system (Carlsbad, CA). Expression levels were normalized to Beta-Tubulin, TUBB in gene expression experiments and calculated using 2-4ACT method (Livak et al., 2001). Primer sequences are detailed in Table 1. MDA-MB-468 cells were grown to log phase in DMEM with 10% FBS without antibiotics. BT549 cells were grown to log phase in DMEM with 10% FBS without antibiotics. Cells were transfected with FOXO1 esiRNA (EHU156591 Sigma, St. Louis, MO) or EGFP control esiRNA (EHUEGFP) using Lipofectamine 3000 (utilized only […] reagent, Invitrogen, Carlsbad, CA).

MDA-MB-468 cells = test: Gene expression by qRT-PCR (TUBB reference)
Procedure: as §2

MDA-MB-468 = test: Colony formation assay (crystal violet); conditions: treated five days
U87MG cells = test: Gene expression by qRT-PCR (TUBB reference)
Procedure: (§3) Cell culture and drug treatments. Cell lines were obtained from ATCC (American Type Culture Collection, Manassas, VA) and grown under standard conditions (5% CO2, 10% FBS (fetal bovine serum), with 5% antifungal/antibacterial). Cell lines were tested for Mycoplasma using the MycoAlert Mycoplasma Detection Kit (Lonza, Basel Switzerland, cat: LT07-218); all experiments were done with mycoplasma negative cells. U87MG cells were propagated in MEM (Minimal Essential Medium). BT549 and DBTRG cells were propagated in RPMI (Roswell Park Memorial Institute 1640 Medium). LN18, U118MG, A172 and LN229 cells were propagated in DMEM (Dulbecco's Modified Eagle Medium). Neurosphere/cancer stem cell cultures for U87MG and BT549 cell lines were plated with 40,000 cells per mL in 3D Tumorsphere Medium XF (Sigma cat: C-28070, Burlington, MA). BT549 cancer stem cell cultures were supplemented with 1XB27 XenoFree CTS (Gibco/Thermo Fisher Waltham, MA, USA). AS1842856 was purchased from Calbiochem (Danvers, MA) and utilized at 200 nM, 500 nM and 1 μM final concentrations as indicated. AS1708727 was purchased from MedChem Express (Monmouth Junction, NJ) and was used at 0.5 μM, 1.0 µM and 2.0 μM concentrations. 5-aza-2′-deoxycytidine (5-AZA) was purchased from Millipore/Sigma (Burlington, MA) and utilized at a final concentration of 3 μM. Total RNA was prepared using the Qiagen RNeasy kit (Hilden, Germany), which was then used to generate cDNA using Superscript Reverse Transcriptase II (Invitrogen, Carlsbad, CA). Samples (cDNAs) were analyzed using (Power SYBR Green Master Mix, Applied Biosystems, Foster City, CA) and the ABI Step-One Real-time system (Carlsbad, CA). Expression levels were normalized to Beta-Tubulin, TUBB in gene expression experiments and calculated using 2-4ACT method (Livak et al., 2001). Primer sequences are detailed in Table 1.

A172 = test: Gene expression by qRT-PCR (TUBB reference); conditions: 1 μM for 48 hours
Procedure: as §3

LN18 = test: Gene expression by qRT-PCR (TUBB reference); conditions: 1 μM for 48 hours
Procedure: as §3

DBTRG = test: Gene expression by qRT-PCR (TUBB reference); conditions: 1 μM for 48 hours
Procedure: as §3

LN229 = test: Gene expression by qRT-PCR (TUBB reference); conditions: 1 μM for 48 hours
Procedure: as §3

Structure (SMILES): CCn1cc(C(=O)O)c(=O)c2c(N)c(F)c(NC3CCCCC3)cc21 [AS1842856, 5-Amino-7-(cyclohexylamino)-1-ethyl-6-fluoro-4-oxo-1,4-dihydroquinoline-3-carboxylic acid]
- FAS and BIM expression (BT549 CSCs): FAS and BIM were induced
- FAS and BIM expression (U87MG CSCs): FAS and BIM were induced
- FAS and BIM gene induction, comparison of the two inhibitors (BT549 cells): robustly caused FAS and BIM
- FOXO1 gene expression (BT549 cells; 1 μM for 48 hours): increased FOXO1 gene expression
- apoptotic genes FAS and/or BIM expression (BT549 cells; 1 μM for 48 hours): induced apoptotic genes FAS and/or BIM
- FAS and BIM gene induction, comparison of the two inhibitors (MDA-MB-468 cells): robustly caused FAS and BIM
- apoptotic genes FAS and/or BIM expression (MDA-MB-468 cells; 1 μM for 48 hours): induced apoptotic genes FAS and/or BIM
- FOXO1 expression (MDA-MB-468 cells; 48 hours of treatment): decreased FOXO1 expression
- colony formation (MDA-MB-468): fewer cells with 200 nM drug treatment with further reductions using 500 nM and 1 μM drug
- FAS expression (U87MG cells): induced
- apoptotic genes FAS and/or BIM expression (U87MG cells; 1 μM for 48 hours): induced apoptotic genes FAS and/or BIM
- apoptotic genes FAS and/or BIM expression (A172): induced apoptotic genes FAS and/or BIM
- apoptotic genes FAS and/or BIM expression (LN18): induced apoptotic genes FAS and/or BIM
- apoptotic genes FAS and/or BIM expression (DBTRG): induced apoptotic genes FAS and/or BIM
- apoptotic genes FAS and/or BIM expression (LN229): induced apoptotic genes FAS and/or BIM

From US20240409934A1, “FOXO1-TARGETED THERAPY FOR THE TREATMENT OF CANCER” (BOARD OF REGENTS, THE UNIVERSITY OF TEXAS SYSTEM, priority 2021, published 2024)
